From article PMC10761660, “Preclinical evaluation of an ^18F-labeled N^ε-acryloyllysine piperazide for covalent targeting of transglutaminase 2” (EJNMMI Radiopharmacy and Chemistry, 2024)

How the values were obtained:
[1] = Liver microsome assay; format: in vitro ADME, murine; conditions: 40 µM, after 60 min
Method: Microsome experiments with [^18F]7b in the presence of NADPH were performed according to the procedure recently described by us with slight modifications (Lemm et al. [2022]). […] [^18F]7b dissolved in 0.5% ethanol/PBS (100 µL; 0.2% ethanol final, e.g. 108 MBq/mL or 4.1 µM final) was mixed with PBS (112.5 µL) and murine liver microsomes (MLM, 12.5 µL of 20 mg/mL stock; 1 mg/mL final; Gibco™ Cat. No. MSMCPL, Lot. No. MS053-A) in a 1.5 mL Eppendorf tube and the mixture was warmed for 5 min at 37 °C. Subsequently, NADPH (25 µL of freshly prepared 20 mM solution in PBS, 2 mM final) was added and the mixture was incubated at 37 °C. As a control incubation, the NADPH solution was replaced by PBS. At distinct time points (5, 10, 15, 30, and 60 min), an aliquot (40 µL) was withdrawn and added to ice-cold CH3CN (160 µL). The mixture was vortexed for 30 s, stored on ice for 4 min and centrifuged (5 min at 16,100 × g). The resulting supernatant was used for radio-HPLC and radio-TLC analyses. For radio-HPLC, the Shimadzu Nexera X2 UHPLC system described above including the conditions for analysis was used. Radio-TLC was carried out on reversed-phase TLC plates (ALUGRAM RP-18W/UV254 from Macherey–Nagel, Düren, Germany) with a mobile phase of 40% CH3CN in water containing 0.1% trifluoroacetic acid. Visualization of radioactive spots and subsequent analysis was conducted as described above.
Testosterone (40 µM final) was used as positive control for the activity of the MLM and was separately treated and analyzed after incubation times of 5, 10, 15, 30, and 60 min as described above (0% ethanol final; HPLC gradient profile: 45% eluent B for 10 min followed by washing of the column with 45% to 95% eluent B in 1 min, 95% eluent B for 5 min, 95% to 45% eluent B in 1 min, 45% eluent B for 8 min; total time of 25 min).
For that, solutions of [^18F]7b in 0.5% ethanol/PBS (10 µL; 0.1% ethanol final, 17 MBq/mL or 1.14 µM final) were mixed with the respective tenfold concentrated solutions of 7b dissolved in 10% DMSO/PBS (5 µL, 1% DMSO final and 5/10/20/40/80 µM of 7b final), PBS (27.5 µL) and murine liver microsomes (2.5 µL of 20 mg/mL stock) in a 1.5 mL Eppendorf tube and the mixture was warmed for 5 min at 37 °C. Subsequently, NADPH (5 µL of freshly prepared 20 mM solution in PBS, 2 mM final) was added and the mixture was incubated at 37 °C. At distinct time points (5, 10, 15, 20, and 30 min), an aliquot (5 µL) was withdrawn and added to ice-cold CH3CN (40 µL). The subsequent steps were performed as described above including analysis by radio-TLC.
For the t1/2 approach at n.c.a. level, the obtained fractions of intact [^18F]7b (by radio-HPLC or radio-TLC analysis) were plotted against the time. Nonlinear regression was performed by one-phase decay (equation 1) as implemented in GraphPad Prism (GraphPad Prism 9.5.1.733), which provided the t1/2 values. The fraction at X = 0 min, Y0, was constrained to 1.0.1 Y0=Y0-Plateau×e^-k×X+Plateau
Subsequently, the intrinsic clearance, CLint (mL*min^−1*kg^−1), was calculated using equation 2 (Obach et al. [1997]; Schneider et al. [2019])2 CLint=ln2/t1/2min×fuinc×1/MLM(mg/mL)×microsomalprotein/liverweightmg/g×liverweight/bodyweightg/kg with the scaling factors of 60.1 mg/g (microsomal protein/liver weight for rats as no value for mice could be found) (Carlile et al. [1997]) and 87.5 g/kg (liver weight/body weight for mice) (Davies and Morris [1993]). The concentration of the MLMs was 1 mg/mL.
For the Vmax/Km approach, the obtained fractions of intact [^18F]7b (by radio-TLC analysis) were plotted against the time (fraction plot). The concentration plot was obtained by transformation of the fractions into concentrations of 7b by taking the experimentally determined molar activity of [^18F]7b into account (i.e. final concentration of 1.14, 6.16, 11.14, 21.14, 41.14, and 81.14 µM for 7b in the performed experiments). Both plots were analyzed by nonlinear regression according to one-phase decay (equation 1). […]

[2] = parameters: method as in Schuppan et al. [2021]; conditions: patients with celiac disease; ref Schuppan et al. [2021]; cited from earlier work

C[C@]12CC[C@H]3[C@@H](CCC4=CC(=O)CC[C@@]43C)[C@@H]1CC[C@@H]2O [Testosterone, reference compound]
consumption of positive control by MLM [1]: completely consumed

CCC(CC)CNC(=O)Cn1cccc(NC(=O)[C@H](CC/C=C/C(=O)OC)NC(=O)c2cncn2C)c1=O [ZED1227]
effect on duodenal mucosa [2]: attenuated damage of the duodenal mucosa
tolerability [2]: well-tolerated
